For this test, the target named is LPA1 (Homo sapiens, UniProt Q92633). Description: in vitro cAMP assay using a CHO cell line overexpressing LPA1 receptor. Set-up: GFP; host or cells: CHO-K1, transiently transfected. To be noted: for % inhibition: cAMP assay, 1 μM LPA, 100 nM forskolin, test concentration not given; for IC50: concentration to reverse 50% of the inhibitory effect of 1 μM 18:1 LPA on forskolin-mediated cAMP production, CHO-K1 overexpressing LPA1. The test is classed as cell-based.
Chain of LPA1 (Q92633 whole entry): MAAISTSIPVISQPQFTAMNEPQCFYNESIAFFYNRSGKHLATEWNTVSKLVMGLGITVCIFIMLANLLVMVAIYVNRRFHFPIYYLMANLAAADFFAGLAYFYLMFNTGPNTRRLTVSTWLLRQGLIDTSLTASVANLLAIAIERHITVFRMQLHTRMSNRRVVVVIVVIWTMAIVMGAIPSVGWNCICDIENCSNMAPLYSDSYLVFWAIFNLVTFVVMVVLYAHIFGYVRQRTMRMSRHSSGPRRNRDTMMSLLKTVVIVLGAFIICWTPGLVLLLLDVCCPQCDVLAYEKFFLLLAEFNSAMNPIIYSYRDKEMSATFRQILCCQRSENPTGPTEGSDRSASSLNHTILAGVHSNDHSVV

For the molecule `Cc1nnn(-c2ccc(-c3ccc(C4(C(=O)O)CC4)cc3)cc2)c1NC(=O)OCc1ccc(F)cc1` [Compound 1b, 1-(4′-(5-((((4-fluorobenzyl)oxy)carbonyl)amino)-4-methyl-1H-1,2,3-triazol-1-yl)-[1,1′-biphenyl]-4-yl)cyclopropane-1-carboxylic acid], the “% inhibition” value was determined as 58.43% and inhibition was half-maximal at 3.34 µM (IC50).

In the case of `Cc1nnn(-c2ccc(-c3ccc(C4(C(=O)O)CC4)cc3)cc2)c1NC(=O)OCc1cccc(F)c1` [Compound 1c, 1-(4′-(5-((((3-fluorobenzyl)oxy)carbonyl)amino)-4-methyl-1H-1,2,3-triazol-1-yl)-[1,1′-biphenyl]-4-yl)cyclopropane-1-carboxylic acid], the “% inhibition” value is 77.1% and the concentration for half-maximal inhibition (IC50) came to 2.15 µM.

`Cc1nnn(-c2ccc(-c3ccc(C4(C(=O)O)CC4)cc3)cc2)c1NC(=O)OCc1ccccc1F` [Compound 1d, 1-(4′-(5-((((2-fluorobenzyl)oxy)carbonyl)amino)-4-methyl-1H-1,2,3-triazol-1-yl)-[1,1′-biphenyl]-4-yl)cyclopropane-1-carboxylic acid]: the “% inhibition” value turned out to be 81.9% and the midpoint of inhibition, the IC50, lay at 1.49 µM.

As for `Cc1nnn(-c2ccc(-c3ccc(C4(C(=O)O)CC4)cc3)cc2)c1NC(=O)OC(C)c1ccc(F)cc1` (centres unmarked) [Compound 1e, 1-(4′-(5-(((1-(4-fluorophenyl)ethoxy)carbonyl)amino)-4-methyl-1H-1,2,3-triazol-1-yl)-[1,1-biphenyl]-4-yl)cyclopropane-1-carboxylic acid], the “% inhibition” value is recorded as 102.1% and half-maximal inhibition (IC50) required 0.0933 µM.

As to `CCc1cccc(COC(=O)Nc2c(C)nnn2-c2ccc(-c3ccc(C4(C(=O)O)CC4)cc3)cc2)c1` [Compound 1h, 1-(4′-(5-((((3-ethylbenzyl)oxy)carbonyl)amino)-4-methyl-1H-1,2,3-triazol-1-yl)-[1,1′-biphenyl]-4-yl)cyclopropane-1-carboxylic acid], the “% inhibition” value is recorded as 115.7% and inhibition was half-maximal at 0.0912 µM (IC50).

Consider `Cc1nnn(-c2ccc(-c3ccc(C4(C(=O)O)CC4)cc3)cc2)c1NC(=O)NCc1ccccn1` [Compound 2a, 1-(4′-(4-methyl-5-(3-(pyridin-2-ylmethyl)ureido)-1H-1,2,3-triazol-1-yl)-[1,1′-biphenyl]-4-yl)cyclopropane-1-carboxylic acid], for which the “% inhibition” value came out at 41.8% and 1 µM corresponded to half-maximal inhibition (IC50).

For `Cc1nnn(-c2ccc(-c3ccc(C4(C(=O)O)CC4)cc3)cc2)c1NC(=O)NCc1ccc(F)cc1` [Compound 2b, 1-(4′-(5-(3-(4-fluorobenzyl)ureido)-4-methyl-1H-1,2,3-triazol-1-yl)-[1,1′-biphenyl]-4-yl)cyclopropane-1-carboxylic acid], the “% inhibition” value is given as 40.5% and the half-inhibitory concentration (IC50) is 3.15 µM.

As to `Cc1nnn(-c2ccc(-c3ccc(C4(C(=O)O)CC4)cc3)cc2)c1NC(=O)NCc1cccc(F)c1` [Compound 2c, 1-(4′-(5-(3-(3-fluorobenzyl)ureido)-4-methyl-1H-1,2,3-triazol-1-yl)-[1,1′-biphenyl]-4-yl)cyclopropane-1-carboxylic acid], the “% inhibition” value is 88.1% and the half-maximal inhibitory concentration (IC50) stood at 2 µM.

As to `Cc1nnn(-c2ccc(-c3ccc(C4(C(=O)O)CC4)cc3)cc2)c1NC(=O)NCc1ccccc1F` [Compound 2d, 1-(4′-(5-(3-(2-fluorobenzyl)ureido)-4-methyl-1H-1,2,3-triazol-1-yl)-[1,1′-biphenyl]-4-yl)cyclopropane-1-carboxylic acid], the “% inhibition” value stood at 49.5% and the IC50 was 4.47 µM.

As for `Cc1nnn(-c2ccc(-c3ccc(C4(C(=O)O)CC4)cc3)cc2)c1NC(=O)N[C@H](C)c1ccc(F)cc1` [Compound 2e, (R)-1-(4′-(5-(3-(1-(4-fluorophenyl)ethyl)ureido)-4-methyl-1H-1,2,3-triazol-1-yl)-[1,1′-biphenyl]-4-yl)cyclopropane-1-carboxylic acid], the “% inhibition” value is listed as 102.0% and the IC50 is 0.78 µM.

These data come from patent publication US20240317709A1, “Lysophosphatidic Acid Receptor Antagonists for Breast Cancer Treatment” (Lakehead University, priority 2023, published 2024).
